Results as given in BigSolDB 2.1.

COC(=O)Nc1nc2ccccc2[nH]1
solubility (mole fraction)
Settings | 278.15 K | 283.15 K | 288.15 K | 293.15 K | 298.15 K | 303.15 K | 308.15 K | 313.15 K | 318.15 K
in DMF | 0.000786 | 0.000861 | 0.000931 | 0.00101 | 0.0011 | 0.00119 | 0.00128 | 0.00138 | 0.00148
in ethanol | 8.29e-06 | 1.14e-05 | 1.66e-05 | 2.28e-05 | 3.16e-05 | 4.28e-05 | 5.74e-05 | 7.63e-05 | 9.98e-05
in methanol | 3.23e-05 | 4.07e-05 | 5.29e-05 | 6.59e-05 | 7.95e-05 | 9.95e-05 | 0.000121 | 0.000147 | 0.000176
in n-propanol | 3.28e-06 | 4.97e-06 | 8.18e-06 | 1.24e-05 | 1.85e-05 | 2.73e-05 | 4.04e-05 | 5.82e-05 | 8.34e-05
in water | 3.3e-07 | 4e-07 | 4.91e-07 | 6e-07 | 7.35e-07 | 8.59e-07 | 1.02e-06 | 1.21e-06 | 1.43e-06
